Data set [1] relates to PANC-1 pancreatic (folate receptor +) cancer cells. Description: In-vitro cytotoxicity of aminopterin formulations (cell titer-glo). It is filed as cell-based. The following applies: Homo sapiens, PANC-1, 72 h, read-out: IC50 (cell viability inhibited by 50%). Here is the method: (§1) Cells originally purchased from ATCC (A549, Panc-1, OVCAR3, and BXPC-3) were seeded in 96 well tissue culture plates to be 50% confluent by 24 hours. Cells were incubated at 37° C. with 5.0% CO2. Cells were treated with escalating doses of free aminopterin, crosslinked aminopterin formulation, uncrosslinked aminopterin formulation, and non drug-loaded micelle formulations 24 hours after plate seeding. Free aminopterin was dissolved in DMSO and administered to cells with a total volume of DMSO equal to or less than 0.0025%. Micelle formulations were re-suspended in biology grade water. Dilutions were done in deep well plates with cell media and water or DMSO (for free aminopterin only) equalizing displaced volume. Incubation media was aspirated from the 96 well plates and 100 μl of each dilution was added to the wells in triplicate and incubated over 72 hours at 37° C. with 5.0% CO2. Crosslinked and uncrosslinked non drug-loaded micelle formulations were administered at the four highest doses and were calculated at comparative mg/ml concentrations to drug-loaded micelle concentrations of delivery vehicle. […] Plates were briefly shaken to mix and luminescence readings were read on a plate reader. Luminescence reading for triplicate doses are averaged and divided by average luminescence readings from untreated cells on the same plate to calculate the % of viable cells per dose. […]

The test system of data set [2] is A549 lung cancer cells. The data set is described as above. It is filed as cell-based. The settings on record: Homo sapiens, A549, 72 h, read-out: IC50 (cell viability inhibited by 50%). On the procedure: as §1
Data set [3] is described as follows: Rat pharmacokinetics of crosslinked cabizataxel micelles. Set-up: species or system Fisher rats. The following applies: Fisher, in vivo, iv, 5 mg/kg. From the text: The delivery vehicle for drug administration was isotonic saline.
On the set-up of data set [4]: species or system Fisher rats. The settings on record: Fisher, rat, in vivo, iv, 10 mg/kg. Here is the method: The delivery vehicle for drug administration was isotonic saline. […] Samples were analyzed on a Waters Alliance 2695 equipped with a 2475 fluorescence detector (Ex=470 nm; Em=580). A 5 μL sample injection was made onto a Waters 4 μm Nova Pak C18 (3.9×150 mm) at 30° C. with a flow rate of 0.750 mL per minute of 10 mM phosphate buffer (pH=1.4), methanol and acetonitrile (gradient from 70/10/20 to 40/10/50 for buffer/methanol/acetonitrile was made over eight minutes). Analyte eluted at 5.9 minutes under these conditions, was normalized to the internal standard, and quantitated using a standard curve comprised of seven standards.

The structures appear in SMILES notation.

For orientation: IC50 means the concentration that inhibits the measured activity by half. Consider `Nc1nc(N)c2nc(CNc3ccc(C(=O)N[C@@H](CCC(=O)O)C(=O)O)cc3)cnc2n1` [Aminopterin, aminopterin], for which the half-maximal inhibitory concentration (IC50) in data set [1] and in data set [2] was 7 to 25 nM throughout.
With `CO[C@H]1C(=O)[C@]2(C)[C@@H](OC)C[C@H]3OC[C@@]3(OC(C)=O)[C@H]2[C@H](OC(=O)c2ccccc2)[C@]2(O)C[C@H](OC(=O)[C@H](O)[C@@H](NC(=O)OC(C)(C)C)c3ccccc3)C(C)=C1C2(C)C` [free cabizataxel, cabazitaxel], the Exposure of cabazitaxel to the plasma compartment over 15 minutes in data set [3] is 200 ng·h/mL.
In data set [4], `COc1cccc2c1C(=O)c1c(O)c3c(c(O)c1C2=O)C[C@@](O)(C(C)=O)C[C@@H]3O[C@H]1C[C@H](N)[C@H](O)[C@H](C)O1` [free daunorubicin, daunorubicin] registered a CMax of 3.3 µg/mL and a Half-life of 3.3 h.

Values taken from patent publication US9944752B2, “Block copolymers for stable micelles” (Intezyne Technologies, Inc., priority 2012, dated 2018).
